Laboratory results: patent US9505781B2, “Compositions comprising thienopyrimidine and thienopyridine compounds and methods of use thereof” (The Regents of the University of Michigan, priority 2013, dated 2016)

Target: T1, menin-MLL interaction (Homo sapiens, UniProt O00255)
T1 sequence (O00255 1-610): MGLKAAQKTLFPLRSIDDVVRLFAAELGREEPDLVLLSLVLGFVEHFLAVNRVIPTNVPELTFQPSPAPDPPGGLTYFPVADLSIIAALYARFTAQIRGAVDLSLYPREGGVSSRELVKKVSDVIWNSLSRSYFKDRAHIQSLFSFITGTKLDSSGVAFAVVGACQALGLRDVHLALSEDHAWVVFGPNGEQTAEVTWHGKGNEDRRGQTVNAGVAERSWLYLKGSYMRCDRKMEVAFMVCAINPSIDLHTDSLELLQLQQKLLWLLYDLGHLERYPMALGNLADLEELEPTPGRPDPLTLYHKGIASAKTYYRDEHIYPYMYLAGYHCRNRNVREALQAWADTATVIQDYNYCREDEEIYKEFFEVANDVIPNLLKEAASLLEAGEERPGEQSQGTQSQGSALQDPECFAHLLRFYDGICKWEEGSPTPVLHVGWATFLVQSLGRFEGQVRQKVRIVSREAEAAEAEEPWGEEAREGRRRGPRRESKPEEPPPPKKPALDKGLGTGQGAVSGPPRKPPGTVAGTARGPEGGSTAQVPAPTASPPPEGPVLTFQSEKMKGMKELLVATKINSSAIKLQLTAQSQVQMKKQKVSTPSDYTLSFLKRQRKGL
Test: biochemical
From the text: Compounds that inhibit the interaction decrease the fluorescence anisotropy which is being used as a read-out for compound screening and for IC50 determination.

| IC50 [nM] | Structure (SMILES) |
| --- | --- |
| < 100 | CC(O)(CO)Cn1c(C#N)cc2cc(CN3CCC(Nc4ncnc5sc(CC(F)(F)F)cc45)CC3)ccc21 (centres unmarked) [Compound 221] |
| 100 to 500 | CCc1ccc(CN2CCC(Nc3ncnc4sc(CC(F)(F)F)cc34)CC2)cc1 [Compound 118] |
| < 100 | Cc1c(CN2CCC(Nc3ncnc4sc(CC(F)(F)F)cc34)CC2)c(O)cc2c1cc(C#N)n2Cc1cn[nH]c1 [Compound 388] |
| 100 to 500 | FC(F)(F)Cc1cc2c(N3CCN(C4CCCCC4)CC3)ncnc2s1 [Compound 11] |
| 100 to 500 | O=C(Cc1ccccc1F)N1CCN(c2ncnc3sc(CC(F)(F)F)cc23)CC1 [Compound 72] |
| 500 to 2000 | CCCc1cc2c(NC3CCN(Cc4ccccc4Cl)CC3)ncnc2s1 [Compound 154] |
| < 100 | Cc1c(CN2CCC(Nc3ncnc4sc(CC(F)(F)F)cc34)CC2)ccc2c1cc(C#N)n2Cc1cnc[nH]1 [Compound 349] |
| < 100 | N#C[C@H]1C[C@@H]1c1ccc(CN2CCC(Nc3ncnc4sc(CC(F)(F)F)cc34)CC2)cc1 [Compound 106] |
| 100 to 500 | N#Cc1cc2cc(CN3CCC(N(CCN4CCOCC4)c4ncnc5sc(CC(F)(F)F)cc45)CC3)ccc2[nH]1 [Compound 238] |
| 500 to 2000 | COc1ccc(CN2CCC(CNc3ncnc4sc(CC(F)(F)F)cc34)CC2)cc1 [Compound 273] |
| 100 to 500 | FC(F)(F)Cc1cc2c(N3CCN(CC4CCCCC4)CC3)ncnc2s1 [Compound 9] |
| 100 to 500 | NS(=O)(=O)Cc1ccc(CC(=O)N2CCN(c3ncnc4sc(CC(F)(F)F)cc34)CC2)c(F)c1 [Compound 78] |
| < 100 | N#CCn1c(C#N)cc2cc(CN3CCC(Nc4ncnc5sc(CC(F)(F)F)cc45)CC3)ccc21 [Compound 197] |
| < 100 | CN(C)S(=O)(=O)Nc1ccc(CC(=O)N2CCN(c3ncnc4sc(CC(F)(F)F)cc34)CC2)cc1 [Compound 51] |
| < 100 | CS(=O)(=O)N(CC#N)c1ccc(CC(=O)N2CCN(C3=NC=NC4SC(CC(F)(F)F)=CC34)CC2)c(Cl)c1 (centres unmarked) [Compound 63] |
| < 100 | N#Cc1cc2cc(CN3CCC(Nc4ncnc5sc(CC(F)(F)F)cc45)CC3)ccc2n1C(F)C(N)=O (centres unmarked) [Compound 220] |
| < 100 | N#Cc1cc2cc(CN3CCC(Nc4ncnc5sc(CC(F)(F)F)cc45)CC3)ccc2n1Cc1c[nH]cn1 [Compound 185] |
| < 100 | COCCOC(CO)Cn1c(C#N)cc2cc(CN3CCC(Nc4ncnc5sc(CC(F)(F)F)cc45)CC3)ccc21 (centres unmarked) [Compound 316] |
| 100 to 500 | O=C1CCC(c2ccc(CC(=O)N3CCN(c4ncnc5sc(CC(F)(F)F)cc45)CC3)cc2)N1 (centres unmarked) [Compound 80] |
| 100 to 500 | OCc1ccccc1CN1CCC(Nc2ncnc3sc(CC(F)(F)F)cc23)CC1 [Compound 110] |
| < 100 | N#Cc1cc2cc(CN3CCC(Nc4ncnc5sc(CC(F)(F)F)cc45)CC3)ccc2n1Cc1cscn1 [Compound 200] |
| 500 to 2000 | CCCC(c1ccc(CC(=O)N2CCN(c3ncnc4sc(CC(F)(F)F)cc34)CC2)cc1)S(C)(=O)=O (centres unmarked) [Compound 98] |

| IC50 [nM] | Structure (SMILES) |
| --- | --- |
| 100 to 500 | Nc1ccccc1CN1CCC(Nc2ncnc3sc(CC(F)(F)F)cc23)CC1 [Compound 113] |
| 500 to 2000 | FC(F)(F)Cc1cc2c(NC3CCN(Cc4ccc(C(F)(F)F)cc4)CC3)ncnc2s1 [Compound 146] |
| 100 to 500 | O=C(Cc1ccc(CS(=O)(=O)C(F)(F)F)cc1)N1CCN(c2ncnc3sc(CC(F)(F)F)cc23)CC1 [Compound 79] |
| < 100 | CCCCS(=O)(=O)Nc1ccc(CC(=O)N2CCN(c3ncnc4sc(CC(F)(F)F)cc34)CC2)cc1 [Compound 54] |
| 100 to 500 | N#Cc1cc2c(O)c(CN3CCC(Nc4ncnc5sc(CC(F)(F)F)cc45)CC3)ccc2[nH]1 [Compound 235] |
| < 100 | O=C(Cc1ccc(NS(=O)(=O)CNCC(F)(F)F)cc1)N1CCN(c2ncnc3sc(CC(F)(F)F)cc23)CC1 [Compound 62] |
| 500 to 2000 | CC1(C)CN=C(N2CCN(c3ncnc4sc(CCCCc5ccccc5)cc34)CC2)S1 [Compound 40] |
| < 100 | COCCOCC(O)(CO)Cn1c(C#N)cc2c(C)c(CN3CCC(Nc4ncnc5sc(CC(F)(F)F)cc45)CC3)ccc21 (centres unmarked) [Compound 315] |
| < 100 | N#Cc1cc2c(F)c(CN3CCC(Nc4ncnc5sc(CC(F)(F)F)cc45)CC3)ccc2[nH]1 [Compound 184] |
| 100 to 500 | Cn1cc(S(=O)(=O)Nc2ccc(CC(=O)N3CCN(c4ncnc5sc(CC(F)(F)F)cc45)CC3)cc2)cn1 [Compound 83] |
| < 100 | Cc1c(CN2CCC(Nc3ncnc4sc(CC(F)(F)F)cc34)CC2)ccc2c1cc(C#N)n2CCN1CCOC(CO)C1 (centres unmarked) [Compound 362] |
| 100 to 500 | FC(F)(F)Cc1cc2c(NCC3CCN(Cc4ccc(N5CCCCC5)cc4)CC3)ncnc2s1 [Compound 255] |
| 100 to 500 | FC(F)(F)Cc1cc2c(NC3CCN(Cc4c[nH]c5ccccc45)CC3)ncnc2s1 [Compound 243] |
| < 100 | CCC(=O)N1CCN(CCCn2c(C#N)cc3cc(CN4CCC(Nc5ncnc6sc(CC(F)(F)F)cc56)CC4)ccc32)CC1 [Compound 396] |
| < 100 | Cc1ccc2[nH]c(C#N)cc2c1CN1CCC(Nc2ncnc3sc(CC(F)(F)F)cc23)CC1 [Compound 218] |
| 500 to 2000 | CS(=O)(=O)N(CC#N)c1ccc(C(F)(F)C(=O)N2CCN(c3ncnc4sc(CC(F)(F)F)cc34)CC2)cc1 [Compound 104] |
| < 100 | N#Cc1cc2cc(CN3CCC(Nc4ncnc5sc(CC(F)(F)F)cc45)CC3)ccc2n1CCn1cncn1 [Compound 209] |
| 100 to 500 | COCc1cnc2sc(CC(F)(F)F)cc2c1NC1CCN(Cc2ccc3[nH]c(C#N)cc3c2)CC1 [Compound 281] |
| < 100 | CC(=O)NCCn1c(C#N)cc2cc(CN3CCC(Nc4ncnc5sc(CC(F)(F)F)cc45)CC3)ccc21 [Compound 208] |
| 500 to 2000 | CC(C)NCC(O)Cn1c(C#N)cc2cc(CN3CCC(Nc4ncnc5sc(CC(F)(F)F)cc45)CC3)ccc21 (centres unmarked) [Compound 251] |
| 100 to 500 | NCc1ccccc1CN1CCC(Nc2ncnc3sc(CC(F)(F)F)cc23)CC1 [Compound 121] |
| < 100 | N#Cc1cc2cc(CN3CCC(Nc4ncnc5sc(CC(F)(F)F)cc45)CC3)ccc2n1Cc1ncon1 [Compound 198] |

| IC50 [nM] | Structure (SMILES) |
| --- | --- |
| 500 to 2000 | FC(F)(F)Cc1sc2ncnc3c2c1CNN3C1CCN(Cc2ccccc2)CC1 [Compound 158] |
| 100 to 500 | FC(F)(F)Cc1cc2c(N[C@H]3CCN(Cc4ccccc4)C[C@@H]3NCCC3CCCC3)ncnc2s1 [Compound 171] |
| < 100 | CCCCC(O)(CO)Cn1c(C#N)cc2cc(CN3CCC(Nc4ncnc5sc(CC(F)(F)F)cc45)CC3)ccc21 (centres unmarked) [Compound 308] |
| 500 to 2000 | CC1(C)CN=C(N2CCN(c3ncnc4sc(CCCC(F)(F)F)cc34)CC2)S1 [Compound 22] |
| 500 to 2000 | OCCC(F)(F)Cc1cc2c(NC3CCN(Cc4ccccc4)CC3)ncnc2s1 [Compound 138] |
| < 100 | Cc1c(CN2CCC(Nc3ncnc4sc(CC(F)(F)F)cc34)CC2)ccc2c1cc(C#N)n2Cc1cnn(C)c1 [Compound 379] |
| 100 to 500 | FC(F)(F)Cc1cc2c(N[C@H]3CCN(Cc4ccccc4)C[C@@H]3NCc3ccccc3)ncnc2s1 [Compound 167] |
| < 100 | COCCOCCn1cc(Cn2c(C#N)cc3c(C)c(CN4CCC(Nc5ncnc6sc(CC(F)(F)F)cc56)CC4)ccc32)cn1 [Compound 313] |
| 100 to 500 | COCCOCCn1nc(Cn2c(C#N)cc3cc(CN4CCC(Nc5ncnc6sc(CC(F)(F)F)cc56)CC4)ccc32)cc1C [Compound 411] |
| < 100 | Cc1c(CN2CCC(Nc3ncnc4sc(CC(F)(F)F)cc34)CC2)ccc2c1cc(C#N)n2Cc1c[nH]nn1 [Compound 311] |
| 500 to 2000 | CN1CCN(Cc2ccc(CN3CCC(CNc4ncnc5sc(CC(F)(F)F)cc45)CC3)cc2)CC1 [Compound 267] |
| 100 to 500 | N#Cc1cc2cc(CN3CCC(Nc4ncnc5sc(CC(F)(F)F)cc45)CC3)ccc2n1Cc1cc(OCCC2CC2)n[nH]1 [Compound 412] |
| < 100 | Cc1c(CN2CCC(Nc3ncnc4sc(CC(F)(F)F)cc34)CC2)ccc2c1cc(C#N)n2CCN1CCN(C(=O)Cc2ccccc2)CC1 [Compound 340] |
| < 100 | N#Cc1cc2cc(CN3CCC(Nc4ncnc5sc(CC(F)(F)F)cc45)CC3)c(O)cc2[nH]1 [Compound 182, 6-hydroxy-5-((4-((6-(2,2,2-trifluoroethyl)thieno[2,3-d]pyrimidin-4-yl)amino)pipendin-1-yl)methyl)-1H-indole-2-carbonitrile] |
| < 100 | CS(=O)(=O)Nc1ccc(CC(=O)N2CCN(C3=NC=NC4SC(CC(F)(F)F)=CC34)CC2)c(Cl)c1 (centres unmarked) [Compound 64] |
| < 100 | Cc1c(CN2CCC(Nc3ncnc4sc(CC(F)(F)F)cc34)CC2)ccc2c1cc(C#N)n2CCN1CCN(CC(N)=O)CC1 [Compound 364] |
| 500 to 2000 | CS(=O)(=O)N(CC1CCCC1)c1ccc(CC(=O)N2CCN(c3ncnc4sc(CC(F)(F)F)cc34)CC2)cc1 [Compound 100] |
| < 100 | N#Cc1cc2cc(CN3CCC(Nc4ncnc5sc(CC(F)(F)F)cc45)C(NCc4cccc(F)c4)C3)ccc2[nH]1 (centres unmarked) [Compound 289] |
| < 100 | Cc1c(CN2CCC(Nc3ncnc4sc(CC(F)(F)F)cc34)CC2)ccc2c1cc(C#N)n2CCN1CCNC(=O)C1 [Compound 355] |
| 100 to 500 | FC(F)(F)Cc1cc2c(NC3CCN(Cc4ccsc4)CC3)ncnc2s1 [Compound 133] |

| Structure (SMILES) | IC50 [nM] |
| --- | --- |
| OCCN(c1ncnc2sc(CC(F)(F)F)cc12)C1CCN(Cc2ccccc2)CC1 [Compound 129] | 100 to 500 |
